# Experimental data taken from PubChem BioAssay AID1845198 (Molecular Pharmacology Branch, DTP, NCI, 2023).
# Test system: 425362-245-T-J1 tumor spheroids, viability % test/control
# Experiment: Anticancer human tumor 425362-245-T-J1 patient-derived melanoma cell line growth inhibition
# Settings: spheroids with HUVEC and MSC; for IC50: curve of first compound; for viability, T/C: stronger effect = lower value
# How it was run: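 Complex spheroids of malignant cells with endothelial cells and mesenchymal stem cells; agents alone or combined, from near clinical Cmax (or 10 microM if unknown) down in half-log steps, 0.25% DMSO final.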
# [1] = second compound 30 pM, first compound 0.0316 µM
# [2] = second compound 30 pM, first compound 0.1 µM
# [3] = second compound 30 pM, first compound 0.316 µM
# [4] = second compound 30 pM, first compound 1 µM
# [5] = second compound 30 pM, first compound 3.16 µM
# [6] = second compound 30 pM, first compound 10 µM
# [7] = second compound 94.9 pM, first compound 0.0316 µM
# [8] = second compound 94.9 pM, first compound 0.1 µM
# [9] = second compound 94.9 pM, first compound 0.316 µM
# [10] = second compound 94.9 pM, first compound 1 µM
# [11] = second compound 94.9 pM, first compound 3.16 µM
# [12] = second compound 94.9 pM, first compound 10 µM
# [13] = second compound 0.0003 µM, first compound 0.0316 µM
# [14] = second compound 0.0003 µM, first compound 0.1 µM
# [15] = second compound 0.0003 µM, first compound 0.316 µM
# [16] = second compound 0.0003 µM, first compound 1 µM
# [17] = second compound 0.0003 µM, first compound 3.16 µM
# [18] = second compound 0.0003 µM, first compound 10 µM
# [19] = second compound 0.000949 µM, first compound 0.0316 µM
# [20] = second compound 0.000949 µM, first compound 0.1 µM
# [21] = second compound 0.000949 µM, first compound 0.316 µM
# [22] = second compound 0.000949 µM, first compound 1 µM
# [23] = second compound 0.000949 µM, first compound 3.16 µM
# [24] = second compound 0.000949 µM, first compound 10 µM
# [25] = second compound 0.003 µM, first compound 0.0316 µM
# [26] = second compound 0.003 µM, first compound 0.1 µM
# [27] = second compound 0.003 µM, first compound 0.316 µM
# [28] = second compound 0.003 µM, first compound 1 µM
# [29] = second compound 0.003 µM, first compound 3.16 µM
# [30] = second compound 0.003 µM, first compound 10 µM
# 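Also: spheroids exposed to agents for 7 days.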
structure (smiles),measurement,setting,value
CC1COCCN1c1cc(-c2ccnn2C)c2ccnc(-c3ccn[nH]3)c2n1 (stereo not given) + COc1cc2c(cc1O)CCNC21CSC2c3c(OC(C)=O)c(C)c4c(c3C(COC1=O)N1C(O)C3Cc5cc(C)c(OC)c(O)c5C(C21)N3C)OCO4,IC50,second compound 30 pM,< 31.6 nM
same,IC50,second compound 94.9 pM,< 31.6 nM
same,IC50,second compound 0.0003 µM,< 31.6 nM
same,IC50,second compound 0.000949 µM,< 31.6 nM
same,IC50,second compound 0.003 µM,< 31.6 nM
same,"viability, T/C",[1],31.8%
same,"viability, T/C",[2],7.92%
same,"viability, T/C",[3],5.31%
same,"viability, T/C",[4],5.63%
same,"viability, T/C",[5],6.73%
same,"viability, T/C",[6],7.04%
same,"viability, T/C",[7],17.9%
same,"viability, T/C",[8],5%
same,"viability, T/C",[9],4.08%
same,"viability, T/C",[10],3.64%
same,"viability, T/C",[11],5.29%
same,"viability, T/C",[12],5.35%
same,"viability, T/C",[13],2.05%
same,"viability, T/C",[14],1.46%
same,"viability, T/C",[15],1.47%
same,"viability, T/C",[16],1.57%
same,"viability, T/C",[17],2.68%
same,"viability, T/C",[18],2.88%
same,"viability, T/C",[19],0.27%
same,"viability, T/C",[20],0.17%
same,"viability, T/C",[21],0.15%
same,"viability, T/C",[22],0.08%
same,"viability, T/C",[23],0.09%
same,"viability, T/C",[24],0.58%
same,"viability, T/C",[25],0.58%
same,"viability, T/C",[26],0.6%
same,"viability, T/C",[27],0.55%
same,"viability, T/C",[28],0.47%
same,"viability, T/C",[29],0.47%
same,"viability, T/C",[30],0.86%
[2H]c1nc(C)nc([2H])c1-c1cc(NC[C@@H](C)c2cccc3c(C(=O)NC)ccnc23)ncn1 + COc1cc2c(cc1O)CCNC21CSC2c3c(OC(C)=O)c(C)c4c(c3C(COC1=O)N1C(O)C3Cc5cc(C)c(OC)c(O)c5C(C21)N3C)OCO4,IC50,second compound 30 pM,> 10000 nM
same,IC50,second compound 94.9 pM,> 10000 nM
same,IC50,second compound 0.0003 µM,72.7 nM
same,IC50,second compound 0.000949 µM,< 31.6 nM
same,IC50,second compound 0.003 µM,< 31.6 nM
same,"viability, T/C",[1],91.2%
same,"viability, T/C",[2],106%
same,"viability, T/C",[3],100%
same,"viability, T/C",[4],101%
same,"viability, T/C",[5],90.8%
same,"viability, T/C",[6],92.1%
same,"viability, T/C",[7],89.7%
same,"viability, T/C",[8],90.1%
same,"viability, T/C",[9],92.3%
same,"viability, T/C",[10],91.5%
same,"viability, T/C",[11],83.1%
same,"viability, T/C",[12],82.5%
same,"viability, T/C",[13],51%
same,"viability, T/C",[14],54.6%
same,"viability, T/C",[15],43.2%
same,"viability, T/C",[16],40.4%
same,"viability, T/C",[17],50.2%
same,"viability, T/C",[18],41.5%
same,"viability, T/C",[19],0.44%
same,"viability, T/C",[20],0.45%
same,"viability, T/C",[21],1.41%
same,"viability, T/C",[22],0.35%
same,"viability, T/C",[23],0.23%
same,"viability, T/C",[24],0.31%
same,"viability, T/C",[25],0.18%
same,"viability, T/C",[26],0.2%
same,"viability, T/C",[27],0.14%
same,"viability, T/C",[28],0.12%
same,"viability, T/C",[29],0.13%
same,"viability, T/C",[30],0.25%
Cc1sc2c(c1C)C(c1ccc(Cl)cc1)=NC(CC(=O)Nc1ccc(O)cc1)c1nnc(C)n1-2 (stereo not given) + Cn1nnc2c(C(N)=O)ncn2c1=O,IC50,second compound 1 µM,82.7 nM
same,IC50,second compound 3.16 µM,86.4 nM
same,IC50,second compound 10 µM,108 nM
same,IC50,second compound 31.6 µM,108 nM
same,IC50,second compound 100 µM,85.7 nM
same,"viability, T/C","second compound 1 µM, first compound 0.00949 µM",85.8%
same,"viability, T/C","second compound 1 µM, first compound 0.03 µM",86.8%
same,"viability, T/C","second compound 1 µM, first compound 0.0949 µM",44.5%
same,"viability, T/C","second compound 1 µM, first compound 0.3 µM",11.4%
same,"viability, T/C","second compound 1 µM, first compound 0.949 µM",4.19%
same,"viability, T/C","second compound 1 µM, first compound 3 µM",4.22%
same,"viability, T/C","second compound 3.16 µM, first compound 0.00949 µM",110%
same,"viability, T/C","second compound 3.16 µM, first compound 0.03 µM",86.2%
same,"viability, T/C","second compound 3.16 µM, first compound 0.0949 µM",47.6%
same,"viability, T/C","second compound 3.16 µM, first compound 0.3 µM",15.7%
same,"viability, T/C","second compound 3.16 µM, first compound 0.949 µM",3.45%
same,"viability, T/C","second compound 3.16 µM, first compound 3 µM",2.88%
same,"viability, T/C","second compound 10 µM, first compound 0.00949 µM",106%
same,"viability, T/C","second compound 10 µM, first compound 0.03 µM",90%
same,"viability, T/C","second compound 10 µM, first compound 0.0949 µM",57.5%
same,"viability, T/C","second compound 10 µM, first compound 0.3 µM",8.87%
same,"viability, T/C","second compound 10 µM, first compound 0.949 µM",3.57%
same,"viability, T/C","second compound 10 µM, first compound 3 µM",2.37%
same,"viability, T/C","second compound 31.6 µM, first compound 0.00949 µM",103%
same,"viability, T/C","second compound 31.6 µM, first compound 0.03 µM",92%
same,"viability, T/C","second compound 31.6 µM, first compound 0.0949 µM",54.1%
same,"viability, T/C","second compound 31.6 µM, first compound 0.3 µM",16.9%
same,"viability, T/C","second compound 31.6 µM, first compound 0.949 µM",4%
same,"viability, T/C","second compound 31.6 µM, first compound 3 µM",2.29%
same,"viability, T/C","second compound 100 µM, first compound 0.00949 µM",84.8%
same,"viability, T/C","second compound 100 µM, first compound 0.03 µM",90.5%
same,"viability, T/C","second compound 100 µM, first compound 0.0949 µM",45.6%
same,"viability, T/C","second compound 100 µM, first compound 0.3 µM",10.6%
same,"viability, T/C","second compound 100 µM, first compound 0.949 µM",3.44%
same,"viability, T/C","second compound 100 µM, first compound 3 µM",1.57%
